# Assay results taken from paper PMC9311865, “Covalent Allosteric Inhibitors of Akt Generated Using a Click Fragment Approach” (Chemmedchem, 2022).
# Entries after “also recorded” stand apart in the source; their conditions may differ. Like-named read-outs stand apart in the source and are kept apart here.
# Columns and labels:
# [1] = system: ZR-75-1 cells; test: CellTiter-Glo Luminescent Cell Viability Assay, ZR-75-1; assay type: cell-based; conditions: Homo sapiens
# [2] = system: AN3CA cells; test: CellTiter-Glo Luminescent Cell Viability Assay, AN3CA; assay type: cell-based; conditions: Homo sapiens, AN3-CA, read-out: EC50 AN3CA
# [3] = system: KU-19-19 cells; test: CellTiter-Glo Luminescent Cell Viability Assay, KU-19-19; assay type: cell-based; conditions: Homo sapiens, bladder cancer cell line, Akt1 E17K/E49K, mean ± SD, n=3
# Description: The potential in vitro antiproliferative activity of the synthesised target compounds was investigated against a number of cancer cell lines by the CellTiter‐Glo® Luminescent Cell Viability Assay (from Promega Corporation, USA, catalogue number: G7570). The half‐maximal effective concentrations (EC50) of these compounds were determined against the AN3‐CA, BT‐474, KU‐19‐19, MCF‐7, T‐47D and ZR‐75‐1 cell lines originating from various tissues, i. e., breast, endometrium and bladder (Table S1). […]
# The CellTiter-Glo® Luminescent Cell Viability Assay from Promega was used for the cellular assays, performed as explained by Weisner et al.7,8 Information on the cancer cell lines are given in Table S1, the control compounds used in Figure S3 and the results in Table S2.
# Table S1. The cell lines used for the cellular assays, including what cancer type they are predominantly found in, and where the cell lines were acquired form.
# Cell line Cancer type Acquired from AN3CA Endometrium ATCC (provided by Prof. Jan G. Hengstler at Leibniz-Institut für Arbeitsforschung Dortmund)
# KU-19-19 Bladder Deutsche Sammlung von Mikroorganismen und Zellkulturen […]
# BT-474 CLS Cell Lines Service (provided by Prof. Jan G. Hengstler at […] Leibniz-Institut für Arbeitsforschung Dortmund)
# [4] = target: Akt3 (Homo sapiens, UniProt Q9Y243); test: HTRF KinEASE assay, IC50 against Akt3
# Chain of Akt3 (Q9Y243 whole entry): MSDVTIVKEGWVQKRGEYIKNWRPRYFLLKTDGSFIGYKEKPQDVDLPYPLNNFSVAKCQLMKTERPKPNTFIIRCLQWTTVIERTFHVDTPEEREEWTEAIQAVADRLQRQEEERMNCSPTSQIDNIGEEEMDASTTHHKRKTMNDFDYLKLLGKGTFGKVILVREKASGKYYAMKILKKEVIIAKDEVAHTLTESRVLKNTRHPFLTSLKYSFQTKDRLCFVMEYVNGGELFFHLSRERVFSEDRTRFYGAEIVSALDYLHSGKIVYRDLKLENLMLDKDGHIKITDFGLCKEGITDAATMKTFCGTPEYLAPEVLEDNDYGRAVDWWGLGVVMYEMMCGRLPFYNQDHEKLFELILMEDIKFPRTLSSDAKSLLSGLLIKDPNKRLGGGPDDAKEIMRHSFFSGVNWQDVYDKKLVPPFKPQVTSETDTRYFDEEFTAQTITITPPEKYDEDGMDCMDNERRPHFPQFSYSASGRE
# Description: (§1) The homogeneous time‐resolved fluorescence (HTRF®) KinEASE™ assay by Cisbio was used to determine the half‐maximal inhibitory concentration (IC50) values of the synthesised compounds against Akt1, Akt2 and Akt3 (Table 1).[26]
# (§2) The HTRF® KinEASE™ assay (Cisbio) was used to determine the IC 50 values of the synthesised
# (§3) al. (Akt2 and Akt3).1,5 The three wild-type Akt isoforms used were acquired from ProQinase.
# [5] = system: T47D cells; test: CellTiter-Glo Luminescent Cell Viability Assay, T47D; assay type: cell-based; conditions: Homo sapiens, breast cancer cell line, mean ± SD, n=3
# [6] = target: T1, Akt1 (Homo sapiens, UniProt P31749); test: HTRF KinEASE assay, IC50 against Akt1
# T1 sequence (P31749 whole entry): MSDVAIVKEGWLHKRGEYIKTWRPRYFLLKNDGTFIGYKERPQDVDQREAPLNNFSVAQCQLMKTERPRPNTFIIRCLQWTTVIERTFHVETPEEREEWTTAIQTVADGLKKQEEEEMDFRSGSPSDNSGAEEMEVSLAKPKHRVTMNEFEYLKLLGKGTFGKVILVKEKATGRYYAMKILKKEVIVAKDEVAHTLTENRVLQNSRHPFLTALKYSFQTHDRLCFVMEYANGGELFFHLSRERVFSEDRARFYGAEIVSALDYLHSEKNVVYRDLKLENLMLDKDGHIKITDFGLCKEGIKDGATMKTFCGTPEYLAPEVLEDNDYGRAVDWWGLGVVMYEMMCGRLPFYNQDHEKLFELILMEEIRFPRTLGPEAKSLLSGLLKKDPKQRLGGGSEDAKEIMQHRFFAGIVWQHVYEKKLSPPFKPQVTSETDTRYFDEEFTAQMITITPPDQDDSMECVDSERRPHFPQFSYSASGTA
# Description: as §1, §2, §3
# [7] = target: T2, Akt2 (Homo sapiens, UniProt P31751); test: HTRF KinEASE assay, IC50 against Akt2; assay type: biochemical; conditions: wild-type Akt2; mean ± SD, n=3
# T2 construct: purchased ProQinase
# T2 sequence (P31751 whole entry): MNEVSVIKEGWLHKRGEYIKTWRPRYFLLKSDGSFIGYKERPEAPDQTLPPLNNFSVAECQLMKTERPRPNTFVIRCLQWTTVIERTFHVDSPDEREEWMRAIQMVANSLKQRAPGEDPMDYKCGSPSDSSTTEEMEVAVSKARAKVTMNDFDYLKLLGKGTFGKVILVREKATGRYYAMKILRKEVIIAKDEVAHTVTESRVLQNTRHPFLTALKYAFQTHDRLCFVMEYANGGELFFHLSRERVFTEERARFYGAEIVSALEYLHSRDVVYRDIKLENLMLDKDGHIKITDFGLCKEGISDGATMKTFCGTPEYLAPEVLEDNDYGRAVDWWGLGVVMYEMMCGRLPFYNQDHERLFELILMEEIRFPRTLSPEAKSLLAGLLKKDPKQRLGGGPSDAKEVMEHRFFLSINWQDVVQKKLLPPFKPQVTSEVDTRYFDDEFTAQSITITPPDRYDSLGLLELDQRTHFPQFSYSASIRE
# Description: as §1, §2, §3
# [8] = system: MCF-7 cells; test: CellTiter-Glo Luminescent Cell Viability Assay, MCF-7; assay type: cell-based; conditions: Homo sapiens
# [9] = system: BT-474 cells; test: CellTiter-Glo Luminescent Cell Viability Assay, BT-474; assay type: cell-based; conditions: Homo sapiens
# [10] = target: T3, wild-type Akt1 (Homo sapiens, UniProt P31749); test: LC-MS identification of covalent binders after co-incubation with Akt1; assay type: binding; conditions: co-incubation with Akt1, Figure S1
# T3 construct: made in house
# T3 sequence (P31749 whole entry): as the sequence (P31749 whole entry) above
# Text: 2. Evaluation results … 4
# 4. Molecular Modelling … 57
# indicated covalent binding.
# [11] = target: T1, Akt1; test: Kinetic analysis with HTRF KinEASE (time-dependent IC50), kinetic parameters of inactivation; assay type: biochemical; set-up: purchased ProQinase; conditions: mean ± SD, n=3; for Ki: inhibition constant of inactivation
# Description: The kinetic parameters of inactivation, namely the inhibition constant (K I) and the rate constant of enzyme inactivation (k inact), are therefore preferentially used to describe irreversible inhibitors.[28] K I is defined as the concentration of inhibitor required for half of the maximum potential rate of covalent bond formation, while k inact is defined as the maximum potential rate of covalent bond formation.[29] The ratio of k inact over K I, k inact/K I, accounts for both the potency of the inhibitor (K I) and the maximum potential rate of covalent bond formation (k inact) and thus represents the second‐order rate constant describing the efficiency of covalent complex formation.[29] Using a protocol published by Krippendorff et al., K I and k inact can be directly estimated from time‐dependent IC50 determinations by kinetic analysis with HTRF® KinEASE™.[28]
# Using a protocol published by Krippendorff et al., KI, kinact and kinact/KI could be directly
# estimated from time-dependent IC50 determinations by kinetic analysis with HTRF® KinEASE™,
# [12] = ZR-75-1, breast cancer cell line, mean ± SD, n=3, read-out: EC50 ZR‐75‐1
# [13] = endometrium cancer cell line, mean ± SD, n=3
# [14] = IC50 Akt1, wild-type Akt1, mean ± SD, n=3
# [15] = MCF7, breast cancer cell line, mean ± SD, n=3, read-out: EC50 MCF‐7
# [16] = BT-474, breast cancer cell line, mean ± SD, n=3, read-out: EC50 BT‐474
# [17] = IC50, Akt1, repeated in Table 2 for comparison, mean ± SD, n=3
melting point,IC50 [4],EC50 [5],"IC50 [6, 14]",IC50 [7],"EC50 [8, 15]","EC50 [9, 16]",SMILES,"EC50 [1, 12]","EC50 [2, 13]",EC50 [3],covalent binding to Akt1 (mass increase by LC-MS) [10],also measured
124 to 126 °C,> 20 µM,4.86 ± 0.627 µM,> 20 µM,> 20 µM,4.38 ± 1.59 µM,9.91 ± 4.14 µM,"C=CC(=O)Nc1cccc(-c2cn(C3CCN(Cc4ccc(-c5nc6ccccn6c5-c5ccccc5C)cc4)CC3)nn2)c1 [Compound 7, N ‐{3‐[1‐(1‐{4‐[3‐(o‐Tolyl)imidazo[1,2‐a]pyridin‐2‐yl]benzyl}piperidin‐4‐yl)‐1H‐1,2,3‐triazol‐4‐yl]phenyl}acrylamide]",4.19 ± 1.11 µM,5.71 ± 0.706 µM,7.69 ± 0.664 µM,,
217 to 219 °C,> 20 µM,9.18 ± 4.72 µM,4.63 ± 0.244 µM,> 20 µM,6.73 ± 3.48 µM,22.8 ± 3 µM,"C=CC(=O)Nc1cccc(-c2cn(C3CCN(Cc4ccc(-c5nc6ccc(C)cn6c5-c5ccccc5)cc4)CC3)nn2)c1 [Compound 10, N ‐[3‐(1‐{1‐[4‐(6‐Methyl‐3‐phenylimidazo[1,2‐a]pyridin‐2‐yl)benzyl]piperidin‐4‐yl}‐1H‐1,2,3‐triazol‐4‐yl)phenyl]acrylamide]",3.32 ± 3.11 µM,5.61 ± 2.85 µM,17.3 ± 7.97 µM,partial covalent binders,
252 to 254 °C,,0.088 ± 0.031 µM,0.007 ± 0.0018 µM,,0.329 ± 0.225 µM,0.469 ± 0.162 µM,"C=CC(=O)Nc1cccc(-c2cn(C3CCN(Cc4ccc(-c5nc6cc[nH]c(=O)c6cc5-c5ccccc5)cc4)CC3)nn2)c1 [Compound 13, N ‐[3‐(1‐{1‐[4‐(5‐Oxo‐3‐phenyl‐5,6‐dihydro‐1,6‐naphthyridin‐2‐yl)benzyl]piperidin‐4‐yl}‐1H‐1,2,3‐triazol‐4‐yl)phenyl]acrylamide]",0.02 ± 0.007 µM,0.425 ± 0.058 µM,5.65 ± 1.49 µM,covalent binders,"IC50 [6, 17]: 0.007 ± 0.0018 µM; decrease in activity against Akt1 compared to control compound 2 ([6]; IC50 ratio to borussertib (2)): less than 10 fold; Ki [11]: 0.0105 ± 0.0008 µM; k inact [11]: 0.042 ± 0.012 min⁻¹; k inact/K I [11]: 66000 ± 15000 M⁻¹ s⁻¹"
,,,,,,1.68 ± 0.316 µM,"NC1(c2ccc(-c3nc4ccn5c(=O)[nH]nc5c4cc3-c3ccccc3)cc2)CCC1 [MK‐2206, reference compound]",0.063 ± 0.021 µM,,5.53 ± 0.927 µM,,
,> 20 µM,3.79 ± 1.94 µM,2.88 ± 1.73 µM,> 20 µM,3.39 ± 0.348 µM,6.99 ± 2.37 µM,"C=CC(=O)Nc1ccc(-c2cn(C3CCN(Cc4ccc(-c5nc6ccccn6c5-c5ccccc5)cc4)CC3)nn2)cc1 [Compound 5, N ‐[4‐(1‐{1‐[4‐(3‐Phenylimidazo[1,2‐a]pyridin‐2‐yl)benzyl]piperidin‐4‐yl}‐1H‐1,2,3‐triazol‐4‐yl)phenyl]acrylamide]",3.54 ± 0.44 µM,5.44 ± 1.56 µM,9.83 ± 1.6 µM,no indication of covalent binding,
130 to 132 °C,> 20 µM,4.59 ± 1.31 µM,> 20 µM,> 20 µM,3.61 ± 0.804 µM,11.2 ± 4.73 µM,"C=CC(=O)Nc1cccc(-c2cn(C3CCN(Cc4ccc(-c5nc6ccccn6c5-c5cccc(C)c5)cc4)CC3)nn2)c1 [Compound 9, N ‐{3‐[1‐(1‐{4‐[3‐(m‐Tolyl)imidazo[1,2‐a]pyridin‐2‐yl]benzyl}piperidin‐4‐yl)‐1H‐1,2,3‐triazol‐4‐yl]phenyl}acrylamide]",4.2 ± 0.817 µM,5.13 ± 1.28 µM,9.45 ± 1.04 µM,,"IC50 Akt1 ([6]; wild-type Akt1, mean ± SD, n=3): inactive"
128 to 130 °C,> 20 µM,> 30 µM,> 20 µM,> 20 µM,18.2 ± 2.56 µM,> 30 µM,"C=CC(=O)Nc1ccccc1-c1cn(C2CCN(Cc3ccc(-c4nc5ccccn5c4-c4ccccc4C)cc3)CC2)nn1 [Compound 6, N ‐{2‐[1‐(1‐{4‐[3‐(o‐Tolyl)imidazo[1,2‐a]pyridin‐2‐yl]benzyl}piperidin‐4‐yl)‐1H‐1,2,3‐triazol‐4‐yl]phenyl}acrylamide]",15.5 ± 1.86 µM,14.7 ± 2.35 µM,22 ± 4.98 µM,,
169 to 170 °C,> 20 µM,4.52 ± 1.59 µM,> 20 µM,> 20 µM,4.3 ± 1.18 µM,7.39 ± 2.34 µM,"C=CC(=O)Nc1ccc(-c2cn(C3CCN(Cc4ccc(-c5nc6ccccn6c5-c5ccccc5C)cc4)CC3)nn2)cc1 [Compound 8, N ‐{4‐[1‐(1‐{4‐[3‐(o‐Tolyl)imidazo[1,2‐a]pyridin‐2‐yl]benzyl}piperidin‐4‐yl)‐1H‐1,2,3‐triazol‐4‐yl]phenyl}acrylamide]",5.32 ± 0.426 µM,5.87 ± 0.403 µM,7.63 ± 0.636 µM,,

# Further lines, the molecule ahead of its results:
SMILES,melting point,IC50 [4],EC50 [5],"IC50 [6, 14]",IC50 [7],"EC50 [8, 15]","EC50 [9, 16]","EC50 [1, 12]","EC50 [2, 13]",EC50 [3],covalent binding to Akt1 (mass increase by LC-MS) [10],also measured
"CC(C)NC[C@@H](C(=O)N1CCN(c2ncnc3c2[C@H](C)C[C@H]3O)CC1)c1ccc(Cl)cc1 [Ipatasertib, reference compound]",,,0.447 ± 0.002 µM,,,,,,,4.23 ± 3.39 µM,,"EC50 ([1]; ZR-75-1, read-out: EC50 ZR‐75‐1): 0.219 ± 0.083 µM; EC50 [2]: 0.925 ± 0.457 µM; EC50 ([8]; MCF7, read-out: EC50 MCF‐7): 5.04 ± 1.83 µM; EC50 ([9]; BT-474, read-out: EC50 BT‐474): 2.37 ± 0.745 µM"
"C=CC(=O)Nc1ccc2[nH]c(=O)n(C3CCN(Cc4ccc(-c5nc6ccccn6c5-c5ccccc5)cc4)CC3)c2c1 [Compound 11, N ‐(2‐Oxo‐3‐{1‐[4‐(3‐phenylimidazo[1,2‐a]pyridin‐2‐yl)benzyl]piperidin‐4‐yl}‐2,3‐dihydro‐1H‐benzo[d]imidazol‐5‐yl)acrylamide]",221 to 223 °C,> 20 µM,0.364 ± 0.087 µM,0.034 ± 0.02 µM,2.56 ± 0.578 µM,1.1 ± 0.689 µM,0.971 ± 0.301 µM,0.081 ± 0.011 µM,1.03 ± 0.21 µM,12.8 ± 1.61 µM,covalent binders,"IC50 [6, 17]: 0.0341 ± 0.0204 µM; Ki [11]: 0.0272 ± 0.0026 µM; k inact [11]: 0.069 ± 0.004 min⁻¹; k inact/K I [11]: 43000 ± 6000 M⁻¹ s⁻¹"
"NC1(C(=O)N[C@@H](CCO)c2ccc(Cl)cc2)CCN(c2ncnc3[nH]ccc23)CC1 [Capivasertib, reference compound]",,,,,,2.65 ± 0.555 µM,1.6 ± 0.45 µM,,,3.06 ± 2.33 µM,,
"C=CC(=O)Nc1cc2c(cc1Cl)[nH]c(=O)n2C1CCN(Cc2ccc(-c3nc4ccccn4c3-c3ccccc3)cc2)CC1 [Compound 12, N ‐(6‐Chloro‐2‐oxo‐3‐{1‐[4‐(3‐phenylimidazo[1,2‐a]pyridin‐2‐yl)benzyl]piperidin‐4‐yl}‐2,3‐dihydro‐1H‐benzo[d]imidazol‐5‐yl)acrylamide]",80 to 82 °C,> 20 µM,1.5 ± 0.903 µM,0.029 ± 0.005 µM,5.59 ± 1.52 µM,4.23 ± 2.4 µM,3.76 ± 1.38 µM,0.227 ± 0.057 µM,3.57 ± 1.22 µM,23.5 ± 6.7 µM,covalent binders,"IC50 [6, 17]: 0.0286 ± 0.0053 µM; Ki [11]: 0.0247 ± 0.0018 µM; k inact [11]: 0.081 ± 0.008 min⁻¹; k inact/K I [11]: 55000 ± 9000 M⁻¹ s⁻¹"
"C=CC(=O)Nc1ccccc1-c1cn(C2CCN(Cc3ccc(-c4nc5ccccn5c4-c4ccccc4)cc3)CC2)nn1 [Compound 4, N ‐[2‐(1‐{1‐[4‐(3‐Phenylimidazo[1,2‐a]pyridin‐2‐yl)benzyl]piperidin‐4‐yl}‐1H‐1,2,3‐triazol‐4‐yl)phenyl]acrylamide]",,> 20 µM,15.2 ± 3.25 µM,0.925 ± 0.277 µM,> 20 µM,8.55 ± 1.25 µM,15.4 ± 6.13 µM,1.75 ± 0.428 µM,12.3 ± 3.48 µM,29.4 ± 9.59 µM,partial covalent binders; also recorded: partial labelling,
"C=CC(=O)Nc1ccc2[nH]c(=O)n(C3CCN(Cc4ccc(-c5nc6cc[nH]c(=O)c6cc5-c5ccccc5)cc4)CC3)c2c1 [Compound 2, borussertib, reference compound]",,,,,,,,,,7.82 ± 3.27 µM,,"EC50 ([8]; MCF7, read-out: EC50 MCF‐7): 0.277 ± 0.09 µM; EC50 ([9]; BT-474, read-out: EC50 BT‐474): 0.373 ± 0.054 µM"
